Data: paper PMC2997912 (Molecular pharmaceutics, 2010)

Molecular target: T1, hASBT (Homo sapiens, UniProt Q12908)
T1 sequence (Q12908 1-348): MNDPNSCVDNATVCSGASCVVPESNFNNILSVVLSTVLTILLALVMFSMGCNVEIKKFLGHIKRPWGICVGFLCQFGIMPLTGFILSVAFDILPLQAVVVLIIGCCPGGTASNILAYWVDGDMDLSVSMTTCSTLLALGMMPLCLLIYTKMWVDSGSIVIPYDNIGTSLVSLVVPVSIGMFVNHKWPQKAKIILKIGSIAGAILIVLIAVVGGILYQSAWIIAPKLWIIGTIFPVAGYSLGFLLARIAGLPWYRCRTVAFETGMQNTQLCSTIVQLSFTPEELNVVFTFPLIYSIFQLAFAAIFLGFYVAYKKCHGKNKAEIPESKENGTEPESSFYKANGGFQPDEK
Assay: Conjugate uptake into hASBT-MDCK cells in the presence of sodium
Format: cell-based

For `C[C@H](CCC(=O)NCCS(=O)(=O)O)[C@H]1CC[C@H]2[C@@H]3[C@H](O)C[C@@H]4C[C@H](O)CC[C@]4(C)[C@H]3C[C@H](O)[C@]12C` [taurocholate, Taurocholate], the Vmax was 0.699 pmol/cm^2/s.
